# From patent US20130142796A1, “TREATMENT FOR ANGIOGENIC DISORDERS” (priority 2011, published 2013)
# “Also recorded” adds a separate entry of the source.
# B1: ranibizumab (antibody, chains of the INN, looked up, V domains shown)
# VH: EVQLVESGGGLVQPGGSLRLSCAASGYDFTHYGMNWVRQAPGKGLEWVGWINTYTGEPTYAADFKRRFTFSLDTSKSTAYLQMNSLRAEDTAVYYCAKYPYYYGTSHWYFDVWGQGTLVTVSS
# VL: DIQLTQSPSSLSASVGDRVTITCSASQDISNYLNWYQQKPGKAPKVLIYFTSSLHSGVPSRFSGSGSGTDFTLTISSLQPEDFATYYCQQYSTVPWTFGQGTKVEIK
# modifications: Fab
# Assays:
# [1] = tested on: patient with active fluid within or under the retina; test: Case studies of Patients 1-8: intravitreal injection, lesion activity followed by OCT and fluorescein angiography; format: in vivo, human; conditions: for subretinal fluid: Patient 1, after 21 previous intravitreal injections of either Lucentis or Avastin; for sub-retinal and sub-RPE fluid: Patient 3, after repeated mono-therapy, ranibizumab 11 times or bevacizumab 3 times; for subretinal fluid and cystoid degeneration: despite photodynamic therapy with verteporfin X2, monthly ranibizumab X12, bevacizumab X15
# Description: In the following examples, “protocol” treatment means that 0.3 mg of pegaptanib in combination with 0.125 mg of bevacizumab or 0.5 mg of ranibizumab, all in commercially available formulations, were injected intravitreally to a patient, using standard procedures for such injections.
# The patient provided written consent following a thorough discussion of relative risks and benefits of the potential use of Macugen® in a combination format with simultaneous administration of intravitreal Avastin®.
# Macugen® was first injected intravitreally (0.3 mg in 0.09 cc). Optic nerve perfusion and intraocular pressure were assessed. Upon restoration of adequate perfusion and pressure stabilization, the eye was once again sterilized and a second intravitreal injection of Avastin® (1.25 mg in 0.05 cc) was given. Optic nerve perfusion and intraocular pressure were reassessed, and the patient was scheduled for routine follow-up.
# [2] = target: heparin-binding domain (HBD) of VEGF (Homo sapiens, UniProt P15692); conditions: Lee et al., FEBS Lett. 2008; cited from earlier work
# [3] = Patient 4, drug used in isolation after protocol treatment
# Chain of heparin-binding domain (HBD) of VEGF (P15692 137-191 isoform P15692-4 limits assumed): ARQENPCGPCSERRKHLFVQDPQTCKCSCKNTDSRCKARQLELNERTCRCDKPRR
molecule,measurement,setting,value
bevacizumab,subretinal fluid,[1],chronic subretinal fluid
same,sub-retinal and sub-RPE fluid,[1],chronic fluid in the sub-retinal and sub-RPE (retinal pigment epithelium) space
same,fluid,[1]; [3],recurrent fluid
same,fluid,"[1]; Patient 6, re-administration of bevacizumab mono-therapy after protocol treatment",recurrent fluid
same,subretinal fluid and cystoid degeneration,[1]; Patient 7,subretinal fluid (SRF); also recorded: chronic subretinal fluid and cystoid degeneration
same,fluid and vision,"[1]; Patient 7, return to bevacizumab alone after protocol treatment",relapse of fluid and vision loss
pegaptanib,fluid,[1]; [3],recurrent fluid
same,binding affinity,[2],high affinity
verteporfin,subretinal fluid and cystoid degeneration,[1]; Patient 7,chronic subretinal fluid and cystoid degeneration
B1,subretinal fluid,[1],chronic subretinal fluid
same,subretinal fluid on OCT,"[1]; Patient 2, after 33 consecutive intravitreal ranibizumab treatments",subretinal fluid (SRF); also recorded: chronic residual subretinal fluid
same,"fluorescein angiogram, late frames","[1]; Patient 2, before combination therapy, after 33 intravitreal ranibizumab",leakage from the choroidal neovascular membrane (CNVM)
same,sub-retinal and sub-RPE fluid,[1],chronic fluid in the sub-retinal and sub-RPE (retinal pigment epithelium) space
same,cystoid macular edema (CME),"[1]; Patient 4, despite 10 ranibizumab injections",chronic cystoid macular edema (CME)
same,lesion activity on angiogram and OCT,"[1]; Patient 6, after 22 ranibizumab treatments",persistent lesion activity
same,disease management,"[1]; Patient 6, ranibizumab mono-therapy after disease was acutely managed with protocol treatment",could be managed with ranibizumab mono-therapy alone
same,subretinal fluid and cystoid degeneration,[1]; Patient 7,subretinal fluid (SRF); also recorded: chronic subretinal fluid and cystoid degeneration
